US4859782A (priority 1987, dated 1989)
Values after ≈ are worked out from the molar mass of the structure shown. Like-named read-outs stand apart in the source and are kept apart here.

How the values were obtained:
[1] = test system: vesicular stomatitis virus (VSV); assay type: cell-based; details: CV-1 cells, 8 μg/well
Candida albicans [2] = assay: microbe, parasite or virus in culture; details: read-out: Antifungal activity, […]
Saccharomyces cerevisiae = assay: microbe, parasite or virus in culture; details: read-out: Antifungal activity, […]
Candida albicans [3] = assay: microbe, parasite or virus in culture; details: read-out: Ca MIC
Penicillium atrovenetum = assay: microbe, parasite or virus in culture; assay type: cell-based; details: read-out: Antifungal activity, Pa: diameter of the zone of growth inhibition
[4] = test system: herpes simplex type 1 (HSV-1); assay type: cell-based
CV-1 cells = details: for VSV cyt (cytotoxicity): VSV-infected CV-1 cells

With COC1CC(C)OC(CCC(C)C(O)C(C)C2OC(=O)C(C)=CCC(O)CC3C=CCC(CC(OC)C(C)C(O)CC(O)C(C)C(C(C)C(O)C(C)CCC4CC(OC)CC(C)O4)OC(=O)C(C)=CCC(O)CC4C=CCC(CC(OC)C(C)C(O)CC(O)C2C)O4)O3)C1 (stereo not drawn) [misakinolide, Misakinolide] the “VSV av (antiviral activity)” value [1] was “+”, the zone of inhibition at 5 µg/disc (Candida albicans [2]) was 10 mm and the zone of inhibition at 5 µg/disc (Saccharomyces cerevisiae) was 12 mm. The MIC (Candida albicans [3]) was 5 µg/mL (≈ 3.74 µM), the zone of inhibition at 5 µg/disc (Penicillium atrovenetum) was 10 mm and the “HSV-1 av (antiviral activity)” value [4] was “++ and +”. For the same molecule, the “HSV-1 cyt (cytotoxicity)” value (CV-1 cells) was 0, the “VSV cyt (cytotoxicity)” value (CV-1 cells; 4 μg/well) was 0 and the “VSV cyt (cytotoxicity)” value (CV-1 cells; 8 μg/well) was 0.
